The values below are quoted from earlier work in patent US20060099208A1, “Method of potentiating the therapeutic action of monoclonal and polyclonal antibodies” (priority 2004, published 2006).

Entries after “also recorded” stand apart in the source; their conditions may differ. Read-outs that look alike come from different tables or passages of the source.

Series [1] concerns skin papilloma. The note with it: mice; pure fatty acid or fatty acid rich oils.
The subject of series [2] is tumor cells. The note with it: in-vitro; for killing of tumor cells: tumor cells and normal cells from American Type Culture Collection.
The subject of series [3] is normal cells.
For series [4], the system named is tumor cells. As to conditions: mixed culture, normal and tumor cells grown together.
For series [5], the system named is tumor cells. As to conditions: PUFA combined with anti-cancer drug.
Series [6] relates to ascitic tumor cells. As to conditions: experimental animals; pure fatty acid or fatty acid rich oils.
In series [7] the test system is hepatoma. As to conditions: rats; pure fatty acid or fatty acid rich oils.
The test system of series [8] is colon cancer.

Regarding `CCCCC/C=C\C/C=C\C/C=C\C/C=C\CCCC(=O)O` [AA, arachidonic acid], the “growth of skin papilloma” value in series [1] is on record as “inhibit the growth”. In series [2], the tumor cell proliferation result was “decrease tumor cell proliferation” and the “killing of tumor cells” value is given as “only tumor cells were killed; also recorded: selectively kill the tumor cells”. Moreover, the “survival of normal cells” value in series [3] (in-vitro) is “without having any significant action”. Besides, in series [4], the selective tumoricidal action result is on record as “effective to some extent”. In addition, the “cytotoxic action of anti-cancer drugs doxorubicin, vincristine and cis-platinum” value (shortened to “cytotoxic action”) in series [5] is “can be augmented”. The “growth of ascitic tumor cells in the peritoneum” value (“growth of ascitic tumor cells” below) in series [6] is listed as “inhibit”. Further, the “formation and growth of hepatoma” value in series [7] is “inhibit”.

`CCCCC/C=C\C/C=C\C/C=C\CCCCCCC(=O)O` [DGLA, dihomo-GLA]: the “growth of skin papilloma” value in series [1] is reported as “inhibit the growth”. In series [2], the tumor cell proliferation entry is listed as “decrease tumor cell proliferation” and the “killing of tumor cells” value is “only tumor cells were killed; also recorded: selectively kill the tumor cells”. The “survival of normal cells” value in series [3] is given as “without having any significant action”. In addition, the “growth of ascitic tumor cells” value in series [6] is listed as “inhibit”. Further, in series [7], the “formation and growth of hepatoma” value is reported as “inhibit”.

For “Avastin: humanized monoclonal antibody to VEGF developed by Genentech”, the side effects entry in series [8] (human, in vivo) was “many side effects”. Also, the “extension of colon cancer patients' lives” value in series [8] (in combination with chemotherapy, trial of 900 patients) was 5 months.

With `CC/C=C\C/C=C\C/C=C\C/C=C\C/C=C\CCCC(=O)O` [EPA, eicosapentaenoic acid], in series [3] (in-vitro), the “survival of normal cells” value was “without having any significant action”. Besides, in series [5], the “cytotoxic action” value is “can be augmented”.

Consider `CC/C=C\C/C=C\C/C=C\C/C=C\C/C=C\C/C=C\CCC(=O)O` [DHA, docosahexaenoic acid], for which, in series [3] (in-vitro), the “survival of normal cells” value is listed as “without having any significant action”. Moreover, the “cytotoxic action” value in series [5] is “can be augmented”.

As for `CCCCC/C=C\C/C=C\C/C=C\CCCCC(=O)O` [GLA, gamma-linolenic acid], in series [2], the tumor cell proliferation entry is “decrease tumor cell proliferation” and the “killing of tumor cells” value is given as “only tumor cells were killed; also recorded: selectively kill the tumor cells”. The “survival of normal cells” value in series [3] (in-vitro) is “without having any significant action”. In series [5], the “cytotoxic action” value is reported as “can be augmented”. Further, the “growth of ascitic tumor cells” value in series [6] was “inhibit”. The “formation and growth of hepatoma” value in series [7] was “inhibit”.
